The results in this text go back to ChEMBL document CHEMBL4431299 (Medchemcomm, 2016).

Calls of active or inactive are those of the source. No cut-off for these calls is given here.

Assay [1] concerns the target Mitogen-activated protein kinase 14 (Mus musculus, UniProt P47811). The assay can be described thus: (§1) Inhibition of kinase tracer 199 binding to mouse inactive p38alpha (2 to 349 residues) expressed in Escherichia coli by microscale thermophoresis assay. On the technique in general: In MST a laser heats a spot of the sample, and binding alters the fluorescence response.

Assay [2] addresses Mitogen-activated protein kinase 14 (Mus musculus) (UniProt P47811). The assay is described as §1.

Chain of Mitogen-activated protein kinase 14 (P47811 whole entry, the tested form may be a part): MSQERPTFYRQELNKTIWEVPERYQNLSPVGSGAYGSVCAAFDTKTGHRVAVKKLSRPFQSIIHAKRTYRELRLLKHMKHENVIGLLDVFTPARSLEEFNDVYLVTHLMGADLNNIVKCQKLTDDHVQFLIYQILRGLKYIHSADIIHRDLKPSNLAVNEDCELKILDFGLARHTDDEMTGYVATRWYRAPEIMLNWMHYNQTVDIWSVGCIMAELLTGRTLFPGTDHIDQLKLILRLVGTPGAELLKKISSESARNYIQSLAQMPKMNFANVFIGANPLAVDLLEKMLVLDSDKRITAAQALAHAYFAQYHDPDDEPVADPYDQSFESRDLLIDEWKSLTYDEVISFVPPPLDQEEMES
Chain of Mitogen-activated protein kinase 14 (Mus musculus) (P47811 whole entry): as the sequence (P47811 whole entry, the tested form may be a part) above

The term Ki denotes a dissociation constant, usually derived from enzyme kinetics or from competition with a known ligand. Turning to `CC(C)(C)c1cc(NC(=O)Nc2ccc(Cl)cc2)n(-c2ccccc2)n1`, the Ki in assay [1] worked out at 100 nM. `Cc1ccc(-n2nc(C(C)(C)C)cc2NC(=O)Nc2ccc(Cl)cc2)cc1` displayed a Ki in assay [1] of 30 nM. As for `CC(C)(C)c1cc(NC(=O)Nc2ccc(Cl)cc2)n(-c2ccccc2Cl)n1`, the inhibition result in assay [2] was “inactive”. Take `CC(C)(C)c1cc(NC(=O)Nc2ccc(Cl)cc2)n(-c2ccc(F)cc2)n1`: in assay [2], the inhibition result is “Active”.

For the compound `COc1ccc(-n2nc(C(C)(C)C)cc2NC(=O)Nc2ccc(Cl)cc2)cc1`, in assay [2], the inhibition result was “Active”.

In assay [1], `Cc1ccccc1-n1nc(C(C)(C)C)cc1NC(=O)Nc1ccc(Cl)cc1` yielded a Ki of 730 nM.

For `CC(C)(C)c1cc(NC(=O)Nc2ccc(Cl)cc2)n(-c2ccc(Cl)cc2)n1`, the inhibition entry in assay [2] was “Active”.

`CC(C)(C)c1cc(NC(=O)Nc2ccc(Cl)cc2)n(-c2ccccc2F)n1`: in assay [2], the inhibition entry is “Active”.

The compound `Cc1cccc(-n2nc(C(C)(C)C)cc2NC(=O)Nc2ccc(Cl)cc2)c1` came in with a Ki in assay [1] of 20 nM. As to `COc1ccccc1-n1nc(C(C)(C)C)cc1NC(=O)Nc1ccc(Cl)cc1`, in assay [2], the inhibition entry is “inactive”.
